Our source for the IC50 values is US7192967B1, “Cyclic imide-substituted pyridylalkane, alkene, alkine carboxamides useful as cytostatic and immunosuppressive agents” (Astellas Pharma GmbH, priority 1997, dated 2007).

Assay [1] has as its system lymphocytes from the spleen of a Swiss mouse. In words: Immunosuppressing activity on freshly isolated lymphocytes, vital cells by flow-through cytometer after 2 days. It counts as cell-based. The settings on record: vital cells after 2 days. The source says: Many anti-tumor agents have not only a cytotoxic effect on tumor cells, but also on the blood cell system. This leads to a weakening of the immune defence, which can, in turn, be specifically employed to suppress the rejection reaction after an organ transplantation for example. Also use of the main compounds, optionally in combination with other immunological diseases (for example, psoriasis or autoimmune diseases) seems likely. In order to test the possibility for a therapeutic use in illnesses of this type, the substance activity was tested on freshly isolated lymphocytes as follows:
The spleen of a Swiss mouse served as a lymphocyte source. The lymphocyte population was isolated from the spleen cell suspension over a ficoll gradient and taken up in IMEM-ZO culture medium with 0.1% dextran 70,000 and 2% foetal calf serum. […] Subsequently, 10,000 cells per each sample were measured on a flow-through cytometer and the percentage amount of vital cells in the population was determined. By means of the dose-response curves, IC50-values were calculated which were also employed in the following Tables for the characterization of the individual substances: […]

Assay [2] deals with HepG2 cells derived from a human liver carcinoma. The assay can be described thus: Growth inhibition of HepG2 cells, sulforhodamin-B-method, six days. It counts as cell-based. The settings on record: six days of substance incubation. As for the experimental part: HepG2 cells derived from a human liver carcinoma plated at a density of 20,000 cells/ml in 12-well plastic dishes. Cultivation occurred in Richters IMEM-ZO nutrient medium with 5% foetal calf serum (FCS) in a tissue culture incubator with a gas mixture of 5% CO2 and 95% air at a temperature of 37° C. One day after plating, the culture medium was aspirated from the cells and replaced by fresh medium which contained the respective concentrations of the test substances. For the individual concentrations and the controls without test substances, three-fold batches were done for each. Three days after the beginning of treatment, the medium was again renewed with the test compounds. After six days of substance incubation, the test was ended and the protein amount in the individual wells was determined with the sulforhodamin-B-method (according to P. Skehan et al.: New Colorimetric Cytotoxicity Assay for Anticancer-Drug Screening. J. Natl. Cancer Inst. 82: 1107–1112, 1990). The IC50-values (defined as that concentration in which the cell growth was inhibited by 50%) was taken from the dose-response curves and given as a comparative measurement for the activity of the test compounds.

On to “N-[6-(2,5-dioxo-3,4-diphenyl-2,5-dihydropyrrol-1-yl)-hexyl])-3-pyridin-3-yl-acrylamide [substance 58]”, for which the concentration for half-maximal inhibition (IC50) was 60 nM in assay [1] and 500 nM in assay [2].
